Reference: the NIST ThermoML archive (doi:10.1021/je700260f)

Conditions: 283.14 K, Liquid, Vibrating tube method

FC(C(F)(F)F)C(F)(F)F [1,1,1,2,3,3,3-heptafluoropropane]
Conditions	mass density [kg/m3]
18793 kPa	1531.9
18821 kPa	1532
18862 kPa	1532.3
18911 kPa	1532.4
18933 kPa	1532.4
18973 kPa	1532.7
19007 kPa	1532.6
19042 kPa	1532.7
19087 kPa	1533
19118 kPa	1533.1
19150 kPa	1533.1
19177 kPa	1533.3
19213 kPa	1533.4
19240 kPa	1533.5
19277 kPa	1533.6
19309 kPa	1533.7
19337 kPa	1533.9
19373 kPa	1534
19406 kPa	1534.1
20075 kPa	1536.4
20104 kPa	1536.4
20142 kPa	1536.6
20175 kPa	1536.7
20372 kPa	1537.3
20424 kPa	1537.4
20453 kPa	1537.6
22509 kPa	1544.4
22609 kPa	1544.6
22639 kPa	1544.7
22675 kPa	1545
22904 kPa	1545.6
22939 kPa	1545.7
23014 kPa	1546
23096 kPa	1546.2
23454 kPa	1547.3
23496 kPa	1547.4
23531 kPa	1547.5
23562 kPa	1547.6
23603 kPa	1547.8
23638 kPa	1548
23709 kPa	1548.1
23828 kPa	1548.6
23869 kPa	1548.8
23896 kPa	1548.7
23944 kPa	1548.9
23985 kPa	1548.9
24017 kPa	1549.2
24350 kPa	1550.1
24387 kPa	1550.2
24422 kPa	1550.4
24459 kPa	1550.4
24490 kPa	1550.5
24532 kPa	1550.8
24572 kPa	1550.8
25104 kPa	1552.3
25136 kPa	1552.5
25173 kPa	1552.8
25209 kPa	1552.7
25250 kPa	1553
25282 kPa	1552.9
25327 kPa	1553.2
25365 kPa	1553.4
25402 kPa	1553.3
25434 kPa	1553.5
25476 kPa	1553.6
25550 kPa	1553.9
25673 kPa	1554.3
25766 kPa	1554.5
25800 kPa	1554.6
25832 kPa	1554.7
25913 kPa	1554.9
26847 kPa	1557.6
27304 kPa	1559.1
27346 kPa	1559.3
27389 kPa	1559.3
27418 kPa	1559.4
27466 kPa	1559.4
27495 kPa	1559.6
27777 kPa	1560.4
28197 kPa	1561.7
28230 kPa	1561.8
28264 kPa	1561.8
28306 kPa	1562.1
28335 kPa	1562.1
28371 kPa	1562
28399 kPa	1562.2
28437 kPa	1562.3
28909 kPa	1563.6
28942 kPa	1563.9
28978 kPa	1564
29016 kPa	1564.1
29044 kPa	1564.1
29121 kPa	1564.3
29155 kPa	1564.3
29185 kPa	1564.4
29223 kPa	1564.5
29257 kPa	1564.7
29291 kPa	1564.7
29319 kPa	1564.9
29391 kPa	1565
29500 kPa	1565.3
29534 kPa	1565.4
30122 kPa	1567.2
